Measured values published in PubChem BioAssay AID1277 (The Scripps Research Institute Molecular Screening Center, 2008).
Activity calls are given as the source filed them. No rule for the calls is given here.

Molecular target: Neuropeptide Y receptor type 1 (Homo sapiens) (UniProt P25929)
Assay: NPY-Y1 receptor antagonist potency, dose response, cell-based (AID 1277)
Conditions: NPY-Y1 expressing cells, antagonist mode

Chain of Neuropeptide Y receptor type 1 (Homo sapiens) (P25929 whole entry, looked up): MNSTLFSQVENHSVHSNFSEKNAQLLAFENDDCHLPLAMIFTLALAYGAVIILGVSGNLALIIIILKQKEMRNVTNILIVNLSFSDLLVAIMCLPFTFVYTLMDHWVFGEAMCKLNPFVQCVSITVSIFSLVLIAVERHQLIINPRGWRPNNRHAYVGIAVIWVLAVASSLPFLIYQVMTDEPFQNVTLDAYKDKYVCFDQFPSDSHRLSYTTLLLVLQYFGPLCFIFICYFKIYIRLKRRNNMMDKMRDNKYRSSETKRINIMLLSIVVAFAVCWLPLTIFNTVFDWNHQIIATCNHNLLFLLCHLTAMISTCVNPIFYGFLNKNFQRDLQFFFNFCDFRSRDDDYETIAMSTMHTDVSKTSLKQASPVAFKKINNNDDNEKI

Row | IC50 | Structure (SMILES)
1 | < 35 µM (inactive) | Cc1cc(C(=O)CSc2nc3ccccc3c(=O)n2C)c(C)n1CC1CCCO1 (centres undefined)
2 | < 35 µM (inactive) | Cn1ccnc1C1CCCCN1Cc1nc(-c2ccc3c(c2)OCO3)no1 (centres undefined)
3 | < 35 µM (inactive) | CC(C)CC(c1nnnn1C1CCCC1)N1CCN(c2ccccc2F)CC1 (centres undefined)
4 | < 35 µM (inactive) | COc1cccc(Oc2cn[nH]c2-c2ccc(O)cc2O)c1
